The text below walks through data of patent publication US20160102317A1, “PLANTS HAVING INCREASED TOLERANCE TO HERBICIDES” (BASF SE, priority 2013, published 2016).

Assay [1] concerns Arabidopsis overexpression line AtHPPD (Seq ID: 53). Briefly: Arabidopsis growth inhibition in 48-well plates, tolerance factor. The assay is classed as in vivo, Arabidopsis thaliana. Particulars: plant growth IC50 of transgenic / wild-type plants. An excerpt:
Rows A-F are individual events. Non-transformed control plants are marked as wild-type (WT). The HPPD-inhibiting herbicide used refers to (NE)-8-chloro-N-(4-methoxy-1,2,5-oxadiazol-3-ylidene)-4,4-dimethyl-1,1-dioxo-2,3-dihydrothiochromene-7-carboxamide
Arabidopsis thaliana is transformed with HPPD or HST sequences by floral dip method as described by McElver and Singh (WO 2008/124495). Transgenic Arabidopsis plants are subjected to TaqMan analysis for analysis of the number of integration loci.
Depending on the species, the plants are kept at 10-25° C. or 20-35° C. The test period extends over 3 weeks. During this time, the plants are tended and their response to the individual treatments is evaluated. Herbicide injury evaluations are taken at 2 and 3 weeks after treatment. Plant injury is rated on a scale of 0 to 9, 0 being no injury and 9 being complete death. Tolerance to HPPD-inhibiting herbicides can also be assessed in Arabidopsis. In this case transgenic Arabidopsis thaliana plants are assayed for improved tolerance to HPPD-inhibiting herbicides in 48-well plates. […] Seven to ten days after seeding growth inhibition is evaluated by comparison to wild-type plants. Tolerance factor is calculated by dividing the plant growth IC50 value of transgenic plants containing a HPPD and/or HST sequence by that of wild-type plants.

Assay [2] concerns the target T1, Hordeum HPPD (SEQ ID: 2) R309K (Hordeum vulgare, UniProt O48604, A164G/R146V/R147D/R148G/R309K).
T1 construct: His (N); made in house; host or cells: E. coli BL21 (DE3)
In words: HPPD activity assay, in vitro characterization of HPPD mutants. The assay is classed as biochemical. Particulars: Table 16, Hordeum wild-type = 1. As to the method: (§1) HPPD produces homogentisic acid and CO2 from 4-hydroxyphenylpyruvate (4-HPP) and 02. The activity assay for HPPD is based on the analysis of homogentisic acid by reversed phase HPLC. The assay mixture can contain 150 mM potassium phosphate buffer pH 7.0, 50 mM L-ascorbic acid, 100 μM Catalase (Sigma-Aldrich), 1 μM FeSO4 and 0.2 units of purified HPPD enzyme in a total volume of 505 μl. 1 unit is defined as the amount of enzyme that is required to produce 1 nmol of HGA per minute at 20° C.
(§2) After a preincubation of 30 min the reaction is started by adding 4-HPP to a final concentration of 0.05 mM. The reaction is allowed to proceed for 45 min at room temperature. The reaction is stopped by the addition of 50 μl of 4.5 M phosphoric acid. The sample is filtered using a […] pore size PVDF filtration device.
(§3) 5 μl of the cleared sample is analyzed on an UPLC HSS T3 column (particle size 1.8 μm, dimensions 2.1×50 mm; Waters) by isocratic elution using 90% 20 mM NaH2PO4 pH 2.2, 10% methanol (v/v).
(§4) HGA is detected electrochemically at 750 mV (mode: DC; polarity: positive) and quantified by integrating peak areas (Empower software; Waters).
(§5) Inhibitors are dissolved in DMSO (dimethylsulfoxide) to a concentration of 0.5 mM. From this stock solution serial five-fold dilutions are prepared in DMSO, which are used in the assay. The respective inhibitor solution accounts for 1% of the assay volume. […] Activities are normalized by setting the uninhibited enzyme activity to 100%. IC50 values are calculated using non-linear regression.
(§6) Purified, mutant HPPD enzymes are obtained by the methods described above. Dose response and kinetic measurements are carried out using the described HPPD activity assay. Apparent michaelis constants (Km) and maximal reaction velocities (Vmax) are calculated by non-linear regression with the software GraphPad Prism 5 (Graph Pad Software, La Jolla, USA) using a substrate inhibition model. […] Weighted means (by standard error) of Km and IC50 values are calculated from at least three independent experiments.
(§7) Field performance of the optimized HPPD enzyme, which is used as a herbicide tolerance trait may depend not only on its lack of sensitivity towards HPPD inhibiting herbicides but also on its activity. To assess the potential performance of a herbicide tolerance trait a tolerance index (TI) is calculated using the following formula: […]
(§8) Easy comparison and ranking of each trait is enabled by normalizing tolerance indexes on Arabidopsis wild-type HPPD.

In assay [3] the target is T2, Hordeum HPPD (SEQ ID: 2) L320H (Hordeum vulgare, UniProt O48604, A164G/L320H/R146V/R147D/R148G).
T2 construct: His (N); made in house; host or cells: E. coli BL21 (DE3)
Described as above. The assay is classed as biochemical. The conditions noted are these: Table 16, Hordeum wild-type = 1. As for the experimental part:
as §1, §2, §3, §4, §5, §6, §7, §8

The target in assay [4] is T3, Hordeum HPPD (SEQ ID: 2) L353M, P321R, L320Q (Hordeum vulgare, UniProt O48604, L320Q/L353M/P321R).
T3 construct: His (N); made in house; host or cells: E. coli BL21 (DE3)
Described as above. The assay is classed as biochemical. Particulars: Table 16, Hordeum wild-type = 1. As for the experimental part: as §1, §2, §3, §4, §5, §6, §7, §8

Assay [5] addresses T4, Hordeum HPPD (SEQ ID: 2) L320H, P321A (Hordeum vulgare, UniProt O48604, L320H/P321A).
T4 construct: His (N); made in house; host or cells: E. coli BL21 (DE3)
The description is as above. The assay is classed as biochemical. The conditions noted are these: Table 16, Hordeum wild-type = 1. As for the experimental part:
as §1, §2, §3, §4, §5, §6, §7, §8

The target of assay [6] is T5, Hordeum HPPD (SEQ ID: 2) L353M, P321R, L320N (Hordeum vulgare, UniProt O48604, L320N/L353M/P321R).
T5 construct: His (N); made in house; host or cells: E. coli BL21 (DE3)
Described as above. The assay is classed as biochemical. Particulars: Table 16, Hordeum wild-type = 1. As to the method:
as §1, §2, §3, §4, §5, §6, §7, §8

In assay [7] the target is T6, Hordeum HPPD (SEQ ID: 2) S252T (Hordeum vulgare, UniProt O48604, A164G/R146V/R147D/R148G/S252T).
T6 construct: His (N); made in house; host or cells: E. coli BL21 (DE3)
The assay is described as above. The assay is classed as biochemical. The conditions noted are these: Table 16, Hordeum wild-type = 1. As to the method:
as §1, §2, §3, §4, §5, §6, §7, §8

For assay [8], the target named is T7, Hordeum HPPD (SEQ ID: 2) L320Q (Hordeum vulgare, UniProt O48604, A164G/L320Q/R146V/R147D/R148G).
T7 construct: His (N); made in house; host or cells: E. coli BL21 (DE3)
The description is as above. Particulars: Table 16, Hordeum wild-type = 1. The assay is classed as biochemical. As for the experimental part:
as §1, §2, §3, §4, §5, §6, §7, §8

The target of assay [9] is T8, Hordeum HPPD (SEQ ID: 2) F404L (Hordeum vulgare, UniProt O48604, A164G/F404L/R146V/R147D/R148G).
T8 construct: His (N); made in house; host or cells: E. coli BL21 (DE3)
The assay is described as above. The assay is classed as biochemical. Particulars: Table 16, Hordeum wild-type = 1. As for the experimental part:
as §1, §2, §3, §4, §5, §6, §7, §8

Values joined by “and” are separate entries in the source; they are usually repeats but may differ in a detail not shown here. Equal entries are not always repeated.

T8 sequence (O48604 whole entry R146V/R147D/R148G/A164G/F404L): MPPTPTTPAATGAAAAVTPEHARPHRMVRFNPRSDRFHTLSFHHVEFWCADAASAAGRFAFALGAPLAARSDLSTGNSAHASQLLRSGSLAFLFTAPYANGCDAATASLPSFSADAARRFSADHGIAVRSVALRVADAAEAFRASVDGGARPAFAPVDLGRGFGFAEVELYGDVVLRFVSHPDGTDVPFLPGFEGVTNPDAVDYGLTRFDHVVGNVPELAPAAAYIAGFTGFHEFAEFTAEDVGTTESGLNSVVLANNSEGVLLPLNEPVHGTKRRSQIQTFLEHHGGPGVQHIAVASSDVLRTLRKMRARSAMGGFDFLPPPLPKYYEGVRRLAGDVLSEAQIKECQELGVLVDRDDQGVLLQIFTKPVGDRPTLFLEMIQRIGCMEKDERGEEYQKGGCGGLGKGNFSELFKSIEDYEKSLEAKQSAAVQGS
T3 sequence (O48604 whole entry R146V/R147D/R148G/A164G/L320Q/P321R/L353M): as the sequence (O48604 whole entry R146V/R147D/R148G/A164G/F404L) above, with L320Q, P321R, L353M, L404F counted along it
T1 sequence (O48604 whole entry R146V/R147D/R148G/A164G/R309K): as the sequence (O48604 whole entry R146V/R147D/R148G/A164G/F404L) above, with R309K, L404F counted along it
T5 sequence (O48604 whole entry R146V/R147D/R148G/A164G/L320N/P321R/L353M): as the sequence (O48604 whole entry R146V/R147D/R148G/A164G/F404L) above, with L320N, P321R, L353M, L404F counted along it
T2 sequence (O48604 whole entry R146V/R147D/R148G/A164G/L320H): as the sequence (O48604 whole entry R146V/R147D/R148G/A164G/F404L) above, with L320H, L404F counted along it
T4 sequence (O48604 whole entry R146V/R147D/R148G/A164G/L320H/P321A): as the sequence (O48604 whole entry R146V/R147D/R148G/A164G/F404L) above, with L320H, P321A, L404F counted along it
T7 sequence (O48604 whole entry R146V/R147D/R148G/A164G/L320Q): as the sequence (O48604 whole entry R146V/R147D/R148G/A164G/F404L) above, with L320Q, L404F counted along it
T6 sequence (O48604 whole entry R146V/R147D/R148G/A164G/S252T): as the sequence (O48604 whole entry R146V/R147D/R148G/A164G/F404L) above, with S252T, L404F counted along it

In the case of `Cc1c(C(=O)Nc2nnnn2C)ccc2c1C(=O)C(C)(C)CS2(=O)=O` [Inhibitor 2, 3,3,5-trimethyl-N-(1-methyltetrazol-5-yl)-1,1,4-trioxo-2H-thiochromene-6-carboxamide], the “Tolerance factor towards Inhibitor 2” value in [1] is recorded as 3. In addition, the “TI Inhibitor 2 (normalized tolerance index)” value in assay [2] was 2.8; in assay [3] it was 4.4; in [4] it was 3.5 and 3.4; in assay [5], 3.6; in assay [6] it was 3.5; in assay [7], 5.9. Further, the “TI Inhibitor 2 (normalized tolerance index)” value in [8] was 1.4; in [9], 3 and 3.1.
For the molecule `COc1no[nH]/c1=N/C(=O)c1ccc2c(c1Cl)S(=O)(=O)CCC2(C)C` [Inhibitor 1, (NE)-8-chloro-N-(4-methoxy-1,2,5-oxadiazol-3-ylidene)-4,4-dimethyl-1,1-dioxo-2,3-dihydrothiochromene-7-carboxamide], the “Tolerance factor towards Inhibitor 1” value in [1] was 6.4. The “TI Inhibitor 1 (normalized tolerance index)” value in assay [2] came out at 0.4; in assay [3] it was 0.6; in [4] it was 1.2; in [5], 0.5; in [6], 0.2; in assay [7], 2.4. Also, the “TI Inhibitor 1 (normalized tolerance index)” value in [8] is 0.1; in assay [9] it was 2.1.
